Assay results published in article PMC6720259, “Phlorotannins with Potential Anti-Tyrosinase and Antioxidant Activity Isolated from the Marine Seaweed Ecklonia stolonifera” (Antioxidants, 2019).
“Also recorded” adds a separate entry of the source. Read-outs that look alike come from different tables or passages of the source.

Columns and labels:
[1] = system: B16F10 melanoma cells; assay: Cell viability (MTT) assay; type: cell-based, mouse; details: 6.25, 12.5, 25, 50, and 100 μM, with or without α-MSH co-treatment
Experimental: B16F10 mouse melanoma cells were obtained from the American Type Culture Collection (Manassas, VA, USA). Cells were cultured at 37 °C in high-glucose DMEM supplemented with 10% FBS, 100 U/mL penicillin, and 100 μg/mL streptomycin in a humidified atmosphere containing 5% CO2. The MTT assay was used to determine the cytotoxicity of 974-A, phlorofucofuroeckol-A, and eckol according to previously described methods with slight modifications. Briefly, B16F10 cells were seeded in a 96-well plate at 1 × 10^4 cells/well and incubated for 24 h in DMEM supplemented with 10% FBS. […] After 24-h incubation of the samples, the FBS-free DMEM was suctioned, and the cells were treated with an MTT solution (100 μL at 0.5 mg/mL in phosphate-buffered saline (PBS)) and incubated for 2 h. The proportion of surviving cells was determined after the medium was replaced with 100 µL of DMSO. […] The absorbance was measured at 570 nm on a microplate reader (Molecular Devices, Sunnyvale, CA, USA).

[2] = system: cellular tyrosinase of B16F10 cells; assay: Cellular TYR activity assay (L-DOPA oxidase activity); type: cell-based, mouse; details: for Cellular tyrosinase activity of α-MSH-stimulated B16F10 cells: 6.25-100 μM, α-MSH 3 μM, 24 h; for Inhibition of cellular tyrosinase compared with arbutin (500 μM): compound at 100 μM, α-MSH-stimulated B16F10 cells
Experimental: Cellular TYR activity was measured as L-DOPA oxidase activity by a previously described method with some modifications. Cells were seeded at 1 × 10^4 cells/well in a 24-well plate, incubated for 24 h and then stimulated with α-MSH (3 μM) in the presence or absence of 974-A, phlorofucofuroeckol-A, or eckol for 24 h. After treatment, the cells were washed with cold PBS and lysed with RIPA buffer. The cell lysates were centrifuged at 12,000 rpm for 10 min, and the supernatant was used as the cellular TYR solution. The reaction mixture, which contained 80 μL of the cell lysate and 20 μL of L-DOPA (20 mM), was incubated at 37 °C for 45 min. After the incubation, dopachrome formation was measured spectrophotometrically every 10 min for 45 min at 450 nm on a microplate reader (Molecular Devices). TYR activity was calculated as a percentage of the control.

[3] = system: tyrosinase, TRP-1, and TRP-2 expression in B16F10 cells; assay: Western blot analysis of melanogenic enzymes; type: cell-based, mouse; details: 12.5–50 μM, α-MSH-stimulated B16F10 cells
Experimental: B16F10 cells were stimulated with α-MSH in the presence or absence of compounds for the indicated times. The cells were then washed with ice-cold PBS and lysed with RIPA buffer on ice for 30 min. After centrifugation of the samples at 12,000× g for 20 min, the protein concentrations of the supernatants were determined. Aliquots of protein were resolved by sodium dodecyl sulfate-polyacrylamide gel electrophoresis (SDS-PAGE) and transferred onto a nitrocellulose membrane. The membrane was washed with Tris-buffered saline (TBS; 10 mM Tris-HCl, 150 mM NaCl, pH 7.5) supplemented with 0.05% Tween 20 (TBST), blocked with 5% skim milk (w/v) in TBST for 2 h and incubated for approximately 20 h with the primary antibodies. The immunoblots were then incubated with the appropriate secondary antibody coupled to horseradish peroxidase for 2 h, and protein levels were detected with an ECL detection kit. Densitometric analysis of data from at least three independent experiments was performed with a cooled CCD camera system and CS analyzer version 3.00 software. Fold-increases in protein expression were calculated versus normal controls. The experiments were repeated three times for each experimental condition.

[4] = molecular target: T1, mushroom tyrosinase (Agaricus bisporus, UniProt C7FF04); assay: Kinetic analysis of mushroom tyrosinase inhibition (Lineweaver-Burk and Dixon plots); type: biochemical; details: for Ki: Dixon plot; for Type of inhibition, L-DOPA / Type of inhibition, L-Tyrosine: Lineweaver-Burk plot
T1 construct: purchased Sigma Aldrich
Experimental: The inhibition mode and inhibition constant (Ki) for mushroom tyrosinase inhibition were calculated from the Lineweaver-Burk and Dixon plots. Kinetic parameters were obtained for various concentrations of the substrates (L-tyrosine and L-DOPA) and inhibitors (974-A, phlorofucofuroeckol-A and eckol). Graphs were generated with Sigma plot 12.0 (SPSS Inc., Chicago, IL, USA).

[5] = DPPH radical scavenging activity; details: mean ± SD of triplicates
Experimental: DPPH radical scavenging activity was evaluated by the method described by Blois, 1958 [19] with slight modifications. L-Ascorbic acid was used as a positive control.

[6] = ABTS•+ radical scavenging assay; details: mean ± SD of triplicates
Source text: This assay assesses the ability of different substances to scavenge ABTS radical cations (ABTS^•+) in comparison with the positive control, Trolox. The method was developed by Re et al. 1999 [21].

[7] = molecular target: T1, mushroom tyrosinase; assay: In vitro mushroom tyrosinase inhibitory assay (L-tyrosine and L-DOPA as substrates); type: biochemical; details: for IC50: mean ± SD of triplicates
Experimental: Mushroom tyrosinase inhibitory activity was assessed by the method described by Kang et al. 2004 [17] with slight modifications.

[8] = system: B16F10 melanoma cells; assay: Melanin content assay in α-MSH-stimulated cells; type: cell-based, mouse; details: for Melanin content of α-MSH-stimulated B16F10 cells: 6.25-100 μM, α-MSH 3 μM, 24 h; for Inhibition of melanin content compared with arbutin (500 μM): compound at 100 μM, α-MSH-stimulated B16F10 cells
Experimental: The intracellular melanin content was determined according to a procedure described previously with minor modifications. Briefly, B16F10 cells were seeded in a 24-well plate at 1 × 10^4 cells/well and incubated for 24 h in DMEM containing 10% FBS. Cells were pretreated with various concentrations of 974-A, phlorofucofuroeckol-A, and eckol for 1 h, and then were stimulated with α-MSH (3 μM) for 24 h. The cells were washed with PBS, and were dissolved in 1 N NaOH containing 10% DMSO by being boiled at 80 °C for 30 min. The cell lysates were centrifuged at 14,000 rpm for 10 min, and the absorbance of the supernatant was measured at 405 nm on a microplate reader (Molecular Devices). The absorbance was normalized to the total protein content for the determination of the melanin content.

[9] = ONOO− radical scavenging assay; details: mean ± SD of triplicates
Experimental: ONOO^− scavenging activity was assessed by a modified version of Kooy’s method, which monitors the production of fluorescent rhodamine 123 from non-fluorescent DHR 123 in the presence of ONOO^−. L-Penicillamine was used as a positive control.

[10] = system: IBMX-treated cells; set-up: method as in PMID 19361156; details: cited from earlier work
[11] = system: tyrosinase; set-up: method as in PMID 19490939; details: at 50 μM; cited from earlier work
[12] = system: cellular melanin and tyrosinase; set-up: method as in earlier work; details: previous study; cited from earlier work
[13] = system: melanin synthesis; set-up: method as in PMID 19490939; details: at 250 μM; cited from earlier work
[14] = IC50 Value, Mushroom Tyrosinase Inhibition, L-DOPA, substrate L-DOPA
[15] = IC50 Value, Mushroom Tyrosinase Inhibition, L-Tyrosine, substrate L-tyrosine
[16] = substrate L-DOPA, read-out: Ki Value, L-DOPA
[17] = substrate L-tyrosine, read-out: Ki Value, L-Tyrosine
[18] = substrate L-DOPA, read-out: IC50 Value, Mushroom Tyrosinase Inhibition, L-DOPA
[19] = substrate L-tyrosine, read-out: IC50 Value, Mushroom Tyrosinase Inhibition, L-Tyrosine

T1 sequence (C7FF04 1-392 limits assumed): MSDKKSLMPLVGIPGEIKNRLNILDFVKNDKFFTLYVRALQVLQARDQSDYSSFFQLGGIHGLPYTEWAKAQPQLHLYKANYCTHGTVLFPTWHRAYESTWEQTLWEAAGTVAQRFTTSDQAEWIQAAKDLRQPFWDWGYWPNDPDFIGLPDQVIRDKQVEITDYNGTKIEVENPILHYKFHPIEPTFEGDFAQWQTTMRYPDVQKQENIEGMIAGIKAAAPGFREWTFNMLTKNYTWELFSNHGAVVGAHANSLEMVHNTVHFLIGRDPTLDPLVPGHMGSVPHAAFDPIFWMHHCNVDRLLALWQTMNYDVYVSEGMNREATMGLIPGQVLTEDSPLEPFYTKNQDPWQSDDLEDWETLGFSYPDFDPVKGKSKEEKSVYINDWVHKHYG

Row | Molecule | Cytotoxicity towards B16F10 melanoma cells (MTT) [1] | Cellular tyrosinase activity of α-MSH-stimulated B16F10 cells [2] | Inhibition of cellular tyrosinase compared with arbutin (500 μM) [2] | Expression of tyrosinase, TRP-1, and TRP-2 (Western blot) [3] | Type of inhibition, L-DOPA ([4]; substrate L-DOPA) | Type of inhibition, L-Tyrosine ([4]; substrate L-tyrosine) | IC50 [5] | IC50 [6] | Melanin content of α-MSH-stimulated B16F10 cells [8] | Inhibition of melanin content compared with arbutin (500 μM) [8] | IC50 [9] | also measured
1 | Oc1cc(O)cc(Oc2c(O)cc(O)c3c2Oc2c(O)cc4oc5c(Oc6cc(O)cc(O)c6)c(O)cc(O)c5c4c2O3)c1 [Phlorofucofuroeckol-A, phlorofucofuroeckol-A] | none of them exhibited significant cytotoxicity up to 100 μM | reduced the cellular melanin content and tyrosinase activity | more potent | downregulated the expression of melanogenesis enzymes; also recorded: dose-dependently attenuated the expression of TYR, TRP-1, and TRP-2 | Non-competitive | Non-competitive | 1.92 ± 0.09 µM | 12.9 ± 0.95 µM | reduced the cellular melanin content | comparable to arbutin | 0.85 ± 0.1 µM | Ki ([4]; Ki Value, L-DOPA, substrate L-DOPA): 7.14 µM; Ki ([4]; Ki Value, L-Tyrosine, substrate L-tyrosine): 2.7 µM; Type of inhibition, L-DOPA ([4]; substrate L-DOPA, listed as phlorofucofuroeckol-A): non-competitive; Type of inhibition, L-Tyrosine ([4]; substrate L-tyrosine, listed as phlorofucofuroeckol-A): non-competitive; IC50 [7, 14]: 8.14 ± 0.29 µM; IC50 [7, 15]: 3.42 ± 0.01 µM
2 | 7-phloreckol [Compound 7-phloreckol] |  |  |  |  |  |  |  |  |  |  |  | Melanin content of IBMX-treated cells [10]: significantly and dose-dependently reduced the melanin content
3 | Cc1c(C)c2c(c(C)c1O)CCC(C)(C(=O)O)O2 (centres unmarked) [Trolox, reference compound] |  |  |  |  |  |  |  | 18.4 ± 0.7 µM |  |  |  | 
4 | Oc1cc(O)cc(Oc2c(O)cc(O)c3c2Oc2c(O)cc(Oc4c(O)cc(Oc5c(O)cc(O)c6c5Oc5c(O)cc(O)cc5O6)cc4O)cc2O3)c1 [Dieckol] |  |  |  |  |  |  |  |  |  |  |  | Tyrosinase inhibitory activity [11]: 88.9%
5 | Oc1cc(O)cc(Oc2c(O)cc(O)c3c2Oc2c(O)cc(O)cc2O3)c1 [Eckol, eckol] | none of them exhibited significant cytotoxicity up to 100 μM | reduced the cellular melanin content and tyrosinase activity | as active | downregulated the expression of melanogenesis enzymes; also recorded: dose-dependently attenuated the expression of TYR, TRP-1, and TRP-2 | Non-competitive | Non-competitive | 1.63 ± 0.65 µM | 5.01 ± 0.19 µM | reduced the cellular melanin content | more effective than arbutin | 0.73 ± 0.07 µM | Ki [4, 16]: 28.5 µM; Type of inhibition, L-DOPA ([4]; substrate L-DOPA, listed as eckol): non-competitive; Ki [4, 17]: 8.6 µM; Type of inhibition, L-Tyrosine ([4]; substrate L-tyrosine, listed as eckol): non-competitive; IC50 [7, 14]: 29.6 ± 0.48 µM; IC50 [7, 15]: 9.12 ± 0.36 µM; Melanin levels and tyrosinase at a cellular level [12]: dose-dependently reduce melanin levels and inhibit tyrosinase at a cellular level
6 | CC(C)(S)C(N)C(=O)O (stereo in doubt) [Penicillamine, L-penicillamine, reference compound] |  |  |  |  |  |  |  |  |  |  | 1.07 ± 0.21 µM | 
7 | Oc1cc(O)cc(Oc2c(O)cc(O)c3c2oc2cc(O)c4c(c23)Oc2c(O)cc(O)c(Oc3cc(O)cc(O)c3-c3c(O)cc(O)cc3Oc3c(O)cc(O)cc3Oc3c(O)cc(O)cc3O)c2O4)c1 [Compound 974-A, 974-A] | none of them exhibited significant cytotoxicity up to 100 μM | reduced the cellular melanin content and tyrosinase activity | as active | downregulated the expression of melanogenesis enzymes; also recorded: dose-dependently attenuated the expression of tyrosinase, TRP-1, and TRP-2 | Competitive | Competitive | 0.92 ± 0.11 µM | 6.29 ± 0.34 µM | reduced the cellular melanin content | comparable to arbutin | 0.26 ± 0.06 µM | Ki [4, 16]: 3.33 µM; Ki [4, 17]: 0.69 µM; IC50 [7, 18]: 3.56 ± 0.22 µM; IC50 [7, 19]: 1.57 ± 0.08 µM
8 | CC1=C(/C=C/C(C)=C/C=C/C(C)=C/CO)C(C)(C)CCC1 [retinol] |  |  |  |  |  |  |  |  |  |  |  | Inhibition of melanin synthesis [13]: 75.3%
9 | O=C1O[C@H]([C@@H](O)CO)C(O)=C1O [Ascorbic acid, L-ascorbic acid, reference compound] |  |  |  |  |  |  | 0.69 ± 0.04 µM |  |  |  |  | 
10 | Oc1cc(O)cc(O)c1 [Phloroglucinol, phloroglucinol] |  |  |  |  |  |  | > 100 µM | 31.5 ± 1.68 µM |  |  | 1.72 ± 0.59 µM | Inhibition of mushroom tyrosinase, either substrate (in words) ([7]; L-tyrosine and L-DOPA): No significant inhibition; IC50 [7, 18]: > 400 µM; IC50 [7, 19]: 251 ± 5.52 µM
